The subject of one data set is SVPE. Particulars: literature; cited from earlier work.
Data set [1] deals with phosphodiesterase I from Crotalus adamanteus venom.
The nature of data set [2]: Chemical stability assay, alkaline conditions (1 M NaOH). As to conditions: 65° C. The class given is physicochemical. The text has this:
The same protocol was used to monitor alkaline stability.

Data set [3] in a line: Chemical stability assay in pepsin-free simulated gastric fluid (SGF). Particulars: SGF pH 1.25, 37° C.
Protocol: Pepsin-free simulated gastric fluid (SGF) was prepared by autoclaving a solution of NaCl (200 mg) in nanopure water (99 mL) followed by addition of 6N HCl (0.7 mL, pH 1.25). TNA (30 pmol), DNA (45 pmol), and RNA (5 pmol) were added to SGF (20 μL) and incubated for the specified time (up to 72 hours). Following the incubation, the reaction mixture was neutralized by the addition of 1N NaOH and the solutions were stored at −20° C. until the time course was complete. The volume was then reduced to 10 μL, mixed with 10 μL of loading buffer (8 M Urea, 5 mM Tris.HCl, 20 mM EDTA, pH 7.5), and the oligonucleotides were analyzed by denaturing PAGE and imaged.
We compared the chemical stability of the all-TNA strand to DNA and RNA oligonucleotides of identical length and similar sequence. […] For these experiments, pepsin-free simulated gastric fluid (SGF, pH 1.25) and 1 M NaOH were used to maintain parity with previous antisense studies^26. For the acidic regime, the TNA, DNA, and RNA samples were incubated in SGF for 72 hours at 37° C.

“Also recorded” adds a separate entry of the source. [FANA-N] = 2'-fluoro-arabino (N: the base); {32P} = 5'-32P radiolabel (phosphate); {FAM} = fluorescein (FAM) label

Consider “2′-fluoro-arabino nucleic acid (AAAACCCACACCACCA; all [FANA-N], backbone and methylation of C not given here)”, for which the “t1/2 in human serum” value was less than 3 h. In addition, the “degradation in the presence of SVPE” value with SVPE is given as “degrade in minutes”.

As for “5′-Fam-CCCCCCCCCCCC-3′ (5' {FAM}, sugars by position and backbone not given here) [DNA]”, in data set [1], the “stability against snake venom phosphodiesterase (SVPE)” value is “digested”. Also, the “time after which trace amounts of the sample are still visible in 1 M NaOH” value in data set [2] worked out at 12 h. In data set [3] (72 hours), the “strand stability in simulated gastric fluid after 72 hours (3 days)” value is “stable; also recorded: remained intact”.

As to “3′-tttCtCtCtCtt-2′ [size-matched TNA/DNA hybrid]”, the “products of SVPE treatment (FIG. 2)” value in data set [1] is on record as “series of shorter truncated products”.

As to “5′-32P-UCUCUCUCUCUC-3′ (RNA, 5' {32P}, backbone not given here)”, the “time within which the sample is degraded in 1 M NaOH” value in data set [2] is no more than 30 min. In data set [3] (first 12 hours), the “sample degraded in SGF in the first 12 hours” value is 85%.

Values taken from patent US9765328B2, “Nuclease-resistant DNA analogues” (Arizona Board of Regents on Behalf of Arizona State …, priority 2014, dated 2017).
